# Read-outs that look alike come from different tables or passages of the source.
# How the values were obtained:
# M. hyopneumoniae JF 435 = assay: MIC against Mycoplasma in vitro (Friis broth with agarose); format: cell-based; details: Mesomycoplasma hyopneumoniae, JF435, 144 h
# S. typhimurium S18 = assay: MIC against veterinary bacteria in vitro (Diagnostic Sensitivity Test Agar); details: Salmonella enterica, 18 h
# Description: (§1) The activity of the normonyl derivatives of the Examples against various veterinarily important bacteria, was assayed in vitro using two-fold serial dilutions in Diagnostic Sensitivity Test Agar inoculated with 10^4 organisms.
# Strep. dysgalactiae SPD1 = assay: as above; details: Streptococcus dysgalactiae, SPD1, 18 h
# Description: as §1
# M. hyopneumoniae TAM 6N = assay: MIC against Mycoplasma in vitro (Friis broth with agarose); format: cell-based; details: Mesomycoplasma hyopneumoniae, TAM6N, 144 h
# Past. multocida PA2 = assay: MIC against veterinary bacteria in vitro (Diagnostic Sensitivity Test Agar); details: Pasteurella multocida, PA2, 18 h
# Description: as §1
# [1] = test system: M. hyopneumoniae J2206/183^b; assay: MIC against Mycoplasma in vitro (Friis broth with agarose); format: cell-based; details: Mesomycoplasma hyopneumoniae, 144 h
# Bord. bronchiseptica B08 = assay: MIC against veterinary bacteria in vitro (Diagnostic Sensitivity Test Agar); details: Bordetella bronchiseptica, B08, 18 h
# Description: as §1
# M. hyopneumoniae MS 16 = assay: MIC against Mycoplasma in vitro (Friis broth with agarose); format: cell-based; details: Mesomycoplasma hyopneumoniae, MS16, 144 h; M. hyopneumoniae MS 16; 6 days at 37° C; read-out: MIC
# [2] = test system: M. hyopneumoniae ATCC 25095; assay: as above; format: cell-based; details: Mesomycoplasma hyopneumoniae, ATCC25095, 144 h; M. hyopneumoniae ATCC 25095; 6 days at 37° C; read-out: MIC
# Bord. bronchiseptica B09 = assay: MIC against veterinary bacteria in vitro (Diagnostic Sensitivity Test Agar); details: Bordetella bronchiseptica, B09, 18 h
# Description: as §1
# Past. multocida PA1 = assay: as above; details: Pasteurella multocida, PA1, 18 h
# Description: as §1
# M. hyopneumoniae UCD 1 = assay: MIC against Mycoplasma in vitro (Friis broth with agarose); format: cell-based; details: Mesomycoplasma hyopneumoniae, UCD1, 144 h
# [3] = test system: Erysipelothrix rhusiopathiae NCTC 8163; assay: MIC against veterinary bacteria in vitro (Diagnostic Sensitivity Test Agar); details: NCTC8163, 18 h
# Description: as §1
# [4] = test system: M. hyosynoviae ATCC 25591; assay: MIC against Mycoplasma in vitro (Friis broth with agarose); format: cell-based; details: 144 h
# M. pneumoniae ATCC 15492 = assay: as above; format: cell-based; details: Mycoplasmoides pneumoniae, ATCC15492, 144 h; M. pneumoniae ATCC 15492; 6 days at 37° C; read-out: MIC
# M. gallisepticum S6 = assay: as above; format: cell-based; details: Mycoplasmoides gallisepticum, 144 h; M. gallisepticum S6; 6 days at 37° C; read-out: MIC
# [5] = test system: Corynebacterium pyogenes CY1; assay: MIC against veterinary bacteria in vitro (Diagnostic Sensitivity Test Agar); details: CY1, 18 h
# Description: as §1
# [6] = test system: Strep. suis (group D) SPS11; assay: as above; details: Streptococcus suis, 18 h
# Description: as §1
# [7] = test system: Staph. aureus 152 (pen. sens); assay: as above; details: Staphylococcus aureus, 18 h
# Description: as §1
# [8] = test system: M. bovigenitalium ATCC 14173; assay: MIC against Mycoplasma in vitro (Friis broth with agarose); format: cell-based; details: 144 h
# E. coli E1 = assay: MIC against veterinary bacteria in vitro (Diagnostic Sensitivity Test Agar); details: Escherichia coli, E1, 18 h
# Description: as §1
# M. bovis NCTC 10131 = assay: microbe, parasite or virus in culture; format: cell-based; details: NCTC10131, 144 h
# M. hyopneumoniae Str. 11 = assay: MIC against Mycoplasma in vitro (Friis broth with agarose); format: cell-based; details: Mesomycoplasma hyopneumoniae
# [9] = test system: Staph. aureus B4 (pen. resistant); assay: MIC against veterinary bacteria in vitro (Diagnostic Sensitivity Test Agar); details: Staphylococcus aureus, 18 h
# Description: as §1
# Strep. agalactiae SPA1 = assay: as above; details: Streptococcus agalactiae, SPA1, 18 h
# Description: as §1
# E. coli NCTC 10418 = assay: as above; details: Escherichia coli, NCTC10418, 18 h
# Description: as §1
# Strep. uberis SPU1 = assay: as above; details: Streptococcus uberis, SPU1, 18 h
# Description: as §1
# [10] = test system: M. hyopneumoniae NCTC 101101; assay: MIC against Mycoplasma in vitro (Friis broth with agarose); format: cell-based; details: Mesomycoplasma hyopneumoniae, NCTC101101, 144 h
# M. hyorhinis ATCC 25021 = assay: as above; format: cell-based; details: Mesomycoplasma hyorhinis, ATCC25021, 144 h
# M. dispar NCTC 10125 = assay: as above; format: cell-based; details: 144 h
# [11] = M. hyopneumoniae JF 435, 6 days at 37° C, read-out: MIC
# [12] = M. hyopneumoniae TAM 6N, 6 days at 37° C, read-out: MIC
# [13] = M. hyopneumoniae J2206/183^b, 6 days at 37° C, read-out: MIC
# [14] = M. hyopneumoniae UCD 1, 6 days at 37° C, read-out: MIC
# [15] = M. hyosynoviae ATCC 25591, 6 days at 37° C, read-out: MIC
# [16] = 144 h, M. hyopneumoniae Str. 11, 6 days at 37° C, read-out: MIC
# [17] = M. hyopneumoniae NCTC 101101, 6 days at 37° C, read-out: MIC
# [18] = M. hyorhinis ATCC 25021, 6 days at 37° C, read-out: MIC
Compound,MIC (M. hyopneumoniae JF 435; [11]),MIC (S. typhimurium S18),MIC (Strep. dysgalactiae SPD1),MIC (M. hyopneumoniae TAM 6N; [12]),MIC (Past. multocida PA2),MIC (Bord. bronchiseptica B08),MIC (Bord. bronchiseptica B09),MIC (Past. multocida PA1),MIC [3],MIC (M. pneumoniae ATCC 15492),MIC (M. gallisepticum S6),MIC [5],MIC [6],MIC [7],MIC (E. coli E1),MIC (M. bovis NCTC 10131),MIC [9],MIC (Strep. agalactiae SPA1),MIC (E. coli NCTC 10418),MIC (Strep. uberis SPU1),further results
"CC(=Cc1nnc(-c2ccc(S(C)(=O)=O)cc2)o1)CC1OCC(CC2OC2C(C)C(C)O)C(O)C1O (centres unmarked) [Example 4, 2-p-Methylsulphonylphenyl-5-(1-normon-2-yl)-1,3,4-oxadiazole A]",0.25 µg/mL,> 80 µg/mL,10 µg/mL,0.5 µg/mL,1.25 µg/mL,> 80 µg/mL,10 µg/mL,2.5 µg/mL,40 µg/mL,> 10 µg/mL,> 10 µg/mL,> 80 µg/mL,80 µg/mL,5 µg/mL,> 80 µg/mL,0.05 µg/mL,5 µg/mL,10 µg/mL,> 80 µg/mL,2.5 µg/mL,"MIC [1, 13]: 0.5 µg/mL; MIC (M. hyopneumoniae MS 16): 0.1 µg/mL; MIC [2]: 0.25 µg/mL; MIC (M. hyopneumoniae UCD 1; [14]): 0.25 µg/mL; MIC [4, 15]: 1 µg/mL; MIC ([8]; M. bovigenitalium ATCC 14173, 6 days at 37° C, read-out: MIC): 0.25 µg/mL; MIC (M. hyopneumoniae Str. 11; [16]): 0.25 µg/mL; MIC [10, 17]: 0.5 µg/mL; MIC (M. hyorhinis ATCC 25021; [18]): 0.1 µg/mL"
"CC(=Cc1nnc(-c2ccc(N(C)C)cc2)o1)CC1OCC(CC2OC2C(C)C(C)O)C(O)C1O (centres unmarked) [Example 10, 2-(4-Dimethylaminophenyl)-5-(1-normon-2-yl)-1,3,4-oxadiazole A]",–,> 80 µg/mL,80 µg/mL,–,5 µg/mL,> 80 µg/mL,> 80 µg/mL,40 µg/mL,40 µg/mL,10 µg/mL,> 10 µg/mL,> 80 µg/mL,> 80 µg/mL,5 µg/mL,> 80 µg/mL,0.25 µg/mL,5 µg/mL,> 80 µg/mL,> 80 µg/mL,20 µg/mL,"MIC (M. hyopneumoniae JF 435): 1 µg/mL; MIC (M. hyopneumoniae TAM 6N): 5 µg/mL; MIC [1]: 5 µg/mL; MIC (M. hyopneumoniae UCD 1): 2.5 µg/mL; MIC [4]: 2.5 µg/mL; MIC [8]: 1 µg/mL; MIC (M. dispar NCTC 10125): 0.5 µg/mL; MIC (M. hyopneumoniae Str. 11; STR.11, 144 h): 1 µg/mL; MIC [10]: 5 µg/mL; MIC (M. hyorhinis ATCC 25021): 1 µg/mL"
"CC(=Cc1nnnn1Cc1ccc([N+](=O)[O-])cc1)CC1OCC(CC2OC2C(C)C(C)O)C(O)C1O (centres unmarked) [Example 12, 1-(p-Nitrobenzyl)-5-(1-normon-2-yl)tetrazole A]",5 µg/mL,> 80 µg/mL,> 80 µg/mL,5 µg/mL,> 80 µg/mL,> 80 µg/mL,> 80 µg/mL,> 80 µg/mL,> 80 µg/mL,> 10 µg/mL,> 10 µg/mL,> 80 µg/mL,> 80 µg/mL,> 80 µg/mL,> 80 µg/mL,0.1 µg/mL,> 80 µg/mL,> 80 µg/mL,> 80 µg/mL,80 µg/mL,"MIC [1, 13]: 5 µg/mL; MIC (M. hyopneumoniae MS 16): 2.5 µg/mL; MIC [2]: 5 µg/mL; MIC (M. hyopneumoniae UCD 1; [14]): 5 µg/mL; MIC [4, 15]: 2.5 µg/mL; MIC (M. dispar NCTC 10125): 1 µg/mL; MIC (M. hyopneumoniae Str. 11; [16]): 2.5 µg/mL; MIC [10, 17]: 5 µg/mL; MIC (M. hyorhinis ATCC 25021; [18]): 2.5 µg/mL"

# Source: US4861788A, “Antibacterial 1-normon-2-yl-heterocyclic compounds” (Beecham Group plc, priority 1983, dated 1989)
